Assay results from doi:10.1101/2020.01.23.916502v1 (biorxiv, 2020).

Columns and labels:
Experiment in all cases: NanoBRET tracer displacement in live HEK293T cells
Assay type in all cases: cell-based
DDR1 = DDR1 (Homo sapiens, UniProt Q08345)
MAPK9 = MAPK9 (Homo sapiens, UniProt P45984)
PNCK = PNCK (Homo sapiens, UniProt Q6P2M8)
JAK1 = JAK1 (Homo sapiens, UniProt P23458)
PIK3CA = PIK3CA (Homo sapiens, UniProt P42336)

Measured: IC50

PIK3CA, sequence (P42336 whole entry): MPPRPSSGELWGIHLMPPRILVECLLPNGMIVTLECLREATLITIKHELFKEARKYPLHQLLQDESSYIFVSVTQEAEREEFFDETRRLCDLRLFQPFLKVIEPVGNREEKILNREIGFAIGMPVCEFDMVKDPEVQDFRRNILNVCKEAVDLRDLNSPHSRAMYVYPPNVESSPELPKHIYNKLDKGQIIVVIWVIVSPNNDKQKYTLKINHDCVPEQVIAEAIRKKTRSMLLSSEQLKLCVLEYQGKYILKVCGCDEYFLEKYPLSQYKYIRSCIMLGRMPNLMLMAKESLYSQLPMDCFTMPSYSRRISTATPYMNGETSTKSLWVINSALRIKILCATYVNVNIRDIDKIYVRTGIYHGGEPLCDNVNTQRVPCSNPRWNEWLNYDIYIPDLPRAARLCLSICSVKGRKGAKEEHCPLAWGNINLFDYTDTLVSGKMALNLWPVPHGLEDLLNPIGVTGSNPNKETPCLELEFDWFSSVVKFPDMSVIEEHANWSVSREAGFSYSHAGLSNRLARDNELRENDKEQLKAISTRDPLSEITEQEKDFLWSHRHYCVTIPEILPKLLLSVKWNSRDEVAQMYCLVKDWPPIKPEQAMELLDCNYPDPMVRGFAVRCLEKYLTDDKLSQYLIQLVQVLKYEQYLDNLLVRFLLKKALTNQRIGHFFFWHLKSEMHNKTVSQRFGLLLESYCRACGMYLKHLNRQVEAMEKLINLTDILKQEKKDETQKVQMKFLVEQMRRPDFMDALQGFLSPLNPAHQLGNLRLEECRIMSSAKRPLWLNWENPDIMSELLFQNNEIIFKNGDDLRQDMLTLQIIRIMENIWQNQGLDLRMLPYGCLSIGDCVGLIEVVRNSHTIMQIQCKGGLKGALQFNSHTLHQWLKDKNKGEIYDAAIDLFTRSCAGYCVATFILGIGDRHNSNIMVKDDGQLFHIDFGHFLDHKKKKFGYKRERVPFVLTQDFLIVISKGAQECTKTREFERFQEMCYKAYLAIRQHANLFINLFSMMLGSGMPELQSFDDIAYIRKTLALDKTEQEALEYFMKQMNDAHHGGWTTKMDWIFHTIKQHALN
MAPK9, sequence (P45984 whole entry): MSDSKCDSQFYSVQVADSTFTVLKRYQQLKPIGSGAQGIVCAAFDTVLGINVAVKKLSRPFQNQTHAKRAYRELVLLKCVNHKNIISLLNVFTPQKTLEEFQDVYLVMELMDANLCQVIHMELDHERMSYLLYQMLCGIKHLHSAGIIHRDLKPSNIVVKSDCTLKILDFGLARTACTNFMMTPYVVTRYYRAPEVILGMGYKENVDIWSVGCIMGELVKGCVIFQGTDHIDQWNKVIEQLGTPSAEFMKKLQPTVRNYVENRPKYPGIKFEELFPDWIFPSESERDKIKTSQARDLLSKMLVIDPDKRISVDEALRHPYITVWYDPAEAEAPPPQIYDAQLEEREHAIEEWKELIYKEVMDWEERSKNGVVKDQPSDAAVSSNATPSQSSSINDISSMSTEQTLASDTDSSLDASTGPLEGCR
DDR1, sequence (Q08345 19-913): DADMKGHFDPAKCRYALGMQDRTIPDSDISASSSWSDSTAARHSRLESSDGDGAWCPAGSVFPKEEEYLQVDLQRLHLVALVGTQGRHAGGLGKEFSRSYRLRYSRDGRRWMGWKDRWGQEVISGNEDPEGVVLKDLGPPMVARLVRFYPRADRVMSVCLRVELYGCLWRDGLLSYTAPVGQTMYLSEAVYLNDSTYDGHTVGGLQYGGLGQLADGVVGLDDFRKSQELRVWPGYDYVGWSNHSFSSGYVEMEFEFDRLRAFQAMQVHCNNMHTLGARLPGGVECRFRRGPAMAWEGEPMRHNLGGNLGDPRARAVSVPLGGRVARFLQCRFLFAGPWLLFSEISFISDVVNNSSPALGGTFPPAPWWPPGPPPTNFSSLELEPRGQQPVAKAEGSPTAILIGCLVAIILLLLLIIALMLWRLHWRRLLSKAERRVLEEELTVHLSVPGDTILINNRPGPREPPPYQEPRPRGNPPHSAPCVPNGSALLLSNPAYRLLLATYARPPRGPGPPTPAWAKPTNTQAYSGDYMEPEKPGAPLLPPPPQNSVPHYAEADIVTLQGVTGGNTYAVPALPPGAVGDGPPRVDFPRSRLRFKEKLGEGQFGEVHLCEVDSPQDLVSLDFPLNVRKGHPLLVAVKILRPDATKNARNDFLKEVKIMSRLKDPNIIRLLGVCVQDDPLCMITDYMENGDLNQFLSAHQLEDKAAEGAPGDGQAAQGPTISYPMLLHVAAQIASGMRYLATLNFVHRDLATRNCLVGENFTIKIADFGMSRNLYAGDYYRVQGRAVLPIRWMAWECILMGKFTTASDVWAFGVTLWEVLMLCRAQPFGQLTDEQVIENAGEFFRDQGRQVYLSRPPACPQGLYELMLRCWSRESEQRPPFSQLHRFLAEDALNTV
JAK1, sequence (P23458 whole entry): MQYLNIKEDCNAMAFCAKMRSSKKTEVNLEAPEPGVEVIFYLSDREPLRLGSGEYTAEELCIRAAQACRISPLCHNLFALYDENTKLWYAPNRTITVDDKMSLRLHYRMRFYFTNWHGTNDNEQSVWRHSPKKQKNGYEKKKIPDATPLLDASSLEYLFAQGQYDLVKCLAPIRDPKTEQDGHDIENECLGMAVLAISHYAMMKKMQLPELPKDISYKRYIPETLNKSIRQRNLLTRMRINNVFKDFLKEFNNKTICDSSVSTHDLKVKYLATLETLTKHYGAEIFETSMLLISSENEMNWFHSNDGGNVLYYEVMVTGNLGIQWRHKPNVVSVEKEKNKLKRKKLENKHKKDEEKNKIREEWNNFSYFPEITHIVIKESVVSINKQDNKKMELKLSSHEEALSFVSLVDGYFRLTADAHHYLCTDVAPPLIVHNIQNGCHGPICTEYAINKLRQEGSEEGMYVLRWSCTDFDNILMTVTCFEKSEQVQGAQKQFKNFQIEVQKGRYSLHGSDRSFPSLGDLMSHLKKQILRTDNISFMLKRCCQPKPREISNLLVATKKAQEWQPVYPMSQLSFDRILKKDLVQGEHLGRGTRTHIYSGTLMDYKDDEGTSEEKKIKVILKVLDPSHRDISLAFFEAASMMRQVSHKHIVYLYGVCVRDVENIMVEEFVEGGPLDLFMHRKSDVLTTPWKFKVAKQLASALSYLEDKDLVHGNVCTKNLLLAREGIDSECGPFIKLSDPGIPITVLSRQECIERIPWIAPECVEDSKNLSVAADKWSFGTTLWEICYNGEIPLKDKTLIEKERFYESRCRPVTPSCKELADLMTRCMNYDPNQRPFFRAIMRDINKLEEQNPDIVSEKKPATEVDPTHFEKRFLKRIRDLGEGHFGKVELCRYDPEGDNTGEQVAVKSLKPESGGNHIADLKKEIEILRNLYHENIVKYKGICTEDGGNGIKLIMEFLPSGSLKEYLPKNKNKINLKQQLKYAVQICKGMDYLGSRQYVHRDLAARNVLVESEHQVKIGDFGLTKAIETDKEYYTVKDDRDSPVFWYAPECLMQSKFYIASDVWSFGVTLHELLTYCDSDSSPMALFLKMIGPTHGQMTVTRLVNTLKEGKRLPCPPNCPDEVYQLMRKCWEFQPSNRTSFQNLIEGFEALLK
PNCK, sequence (Q6P2M8 whole entry): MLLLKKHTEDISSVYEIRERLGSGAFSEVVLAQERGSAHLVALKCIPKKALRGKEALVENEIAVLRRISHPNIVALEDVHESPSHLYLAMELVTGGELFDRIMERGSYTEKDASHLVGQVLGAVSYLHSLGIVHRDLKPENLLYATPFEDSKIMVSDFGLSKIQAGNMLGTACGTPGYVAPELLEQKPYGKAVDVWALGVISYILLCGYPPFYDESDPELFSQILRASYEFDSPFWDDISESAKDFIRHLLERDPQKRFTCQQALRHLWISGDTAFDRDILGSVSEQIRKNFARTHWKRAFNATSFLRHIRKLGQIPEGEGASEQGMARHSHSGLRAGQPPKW

Cc1ccc2c(c1)n(CC(N)=O)c(=O)n2-c1cc(-c2cc(Cl)ccc2F)ncc1C [compound 16, THAI14]
> 20 µM: all assays above

Cc1cnc(-c2cc(Cl)ccc2F)cc1-n1c(=O)n(CC(N)=O)c2ccccc21 [compound 15, THAI11]
> 20 µM: all assays above
